Experimental data: ChEMBL document CHEMBL1201862, “PubChem BioAssay data set” (2004)
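Cells were grown in 96-well plates and exposed to each compound for 48 hours at five concentrations; endpoints were interpolated linearly between bracketing concentrations, or set to the highest concentration if not reached. GI50: concentration for 50% inhibition of growth.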 Active and inactive are the calls of the source. Rule as the data show it: active = GI50 up to about 1.1 µM and inactive = higher.

Tests used:
Experiment in all cases: growth of human tumour cells (NCI), 48 h
OVCAR-4 = tested on: OVCAR-4
U-251 = tested on: U-251
K562 = tested on: K562
HL-60 = tested on: HL-60
SNB-75 = tested on: SNB-75
SF-295 = tested on: SF-295
OVCAR-8 = tested on: OVCAR-8
HCC 2998 = tested on: HCC 2998
UACC-62 = tested on: UACC-62
CAKI-1 = tested on: CAKI-1
NCI-H226 = tested on: NCI-H226
COLO 205 = tested on: COLO 205
OVCAR-3 = tested on: OVCAR-3
TK-10 = tested on: TK-10
HOP-92 = tested on: HOP-92
CCRF-CEM = tested on: CCRF-CEM
MCF7 = tested on: MCF7
M14 = tested on: M14
A549 = tested on: A549
SK-MEL-28 = tested on: SK-MEL-28

**Q.** `CC(C)=CCC[C@@H](C)c1c2nc3ccccc3[nH]c-2c(C)c(=O)c1O` was tested. Which GI50 (OVCAR-4) did it give?
**A.** 2.88 µM (inactive)

**Q.** And the GI50 (U-251)?
**A.** 1.6 µM (inactive)

**Q.** What about the GI50 (K562) of the same molecule?
**A.** 1.41 µM (inactive)

**Q.** What about the GI50 (HL-60) of the same molecule?
**A.** 0.383 µM (active)

**Q.** What about the GI50 (SNB-75) of the same molecule?
**A.** 1.71 µM (inactive)

**Q.** What about the GI50 (SF-295) of the same molecule?
**A.** 0.946 µM (active)

**Q.** And the GI50 (OVCAR-8)?
**A.** 1.71 µM (inactive)

**Q.** What about the GI50 (HCC 2998) of the same molecule?
**A.** 5.45 µM (inactive)

**Q.** What about the GI50 (UACC-62) of the same molecule?
**A.** 1.09 µM (active)

**Q.** And the GI50 (CAKI-1)?
**A.** 1.14 µM (inactive)

**Q.** What about the GI50 (NCI-H226) of the same molecule?
**A.** 1.4 µM (inactive)

**Q.** What about the GI50 (COLO 205) of the same molecule?
**A.** 5.65 µM (inactive)

**Q.** And the GI50 (OVCAR-3)?
**A.** 0.363 µM (active)

**Q.** What about the GI50 (TK-10) of the same molecule?
**A.** 2.58 µM (inactive)

**Q.** What about the GI50 (HOP-92) of the same molecule?
**A.** 1.41 µM (inactive)

**Q.** And the GI50 (CCRF-CEM)?
**A.** 0.27 µM (active)

**Q.** And the GI50 (MCF7)?
**A.** 2.18 µM (inactive)

**Q.** And the GI50 (M14)?
**A.** 1.44 µM (inactive)

**Q.** And the GI50 (A549)?
**A.** 2.37 µM (inactive)

**Q.** And the GI50 (SK-MEL-28)?
**A.** 4.38 µM (inactive)

**Q.** Which GI50 (OVCAR-4) does the source give for `c1ccc2c(Cc3[nH]c4ccccc4c3Cc3c[nH]c4ccccc34)c[nH]c2c1` here?
**A.** 3.06 µM (inactive)

**Q.** And the GI50 (U-251)?
**A.** 2.88 µM (inactive)

**Q.** And the GI50 (K562)?
**A.** 2.33 µM (inactive)

**Q.** And the GI50 (HL-60)?
**A.** 1.86 µM (inactive)

**Q.** And the GI50 (SNB-75)?
**A.** 2.48 µM (inactive)

**Q.** What about the GI50 (SF-295) of the same molecule?
**A.** 4.3 µM (inactive)

**Q.** What about the GI50 (OVCAR-8) of the same molecule?
**A.** 4.09 µM (inactive)

**Q.** What about the GI50 (HCC 2998) of the same molecule?
**A.** 1.64 µM (inactive)

**Q.** What about the GI50 (UACC-62) of the same molecule?
**A.** 11 µM (inactive)

**Q.** What about the GI50 (CAKI-1) of the same molecule?
**A.** 2.74 µM (inactive)

**Q.** What about the GI50 (NCI-H226) of the same molecule?
**A.** 6.08 µM (inactive)

**Q.** And the GI50 (COLO 205)?
**A.** 2.07 µM (inactive)

**Q.** And the GI50 (OVCAR-3)?
**A.** 3.16 µM (inactive)

**Q.** What about the GI50 (TK-10) of the same molecule?
**A.** 2.85 µM (inactive)

**Q.** And the GI50 (HOP-92)?
**A.** 3.9 µM (inactive)

**Q.** What about the GI50 (CCRF-CEM) of the same molecule?
**A.** 2.16 µM (inactive)

**Q.** And the GI50 (MCF7)?
**A.** 11.2 µM (inactive)

**Q.** And the GI50 (M14)?
**A.** 2.36 µM (inactive)

**Q.** And the GI50 (A549)?
**A.** 3.1 µM (inactive)

**Q.** And the GI50 (SK-MEL-28)?
**A.** 6.21 µM (inactive)

**Q.** What does the source list for `CCO/C=N\c1c(C#N)c(-c2ccc(Cl)cc2)cn1-c1ccc(C)cc1`?
**A.** GI50 (OVCAR-4): > 100 µM (inactive); GI50 (U-251): > 100 µM (inactive); GI50 (K562): > 100 µM (inactive); GI50 (HL-60): > 100 µM (inactive); GI50 (SNB-75): > 100 µM (inactive); GI50 (SF-295): > 100 µM (inactive); GI50 (OVCAR-8): > 100 µM (inactive); GI50 (HCC 2998): > 100 µM (inactive); GI50 (UACC-62): > 100 µM (inactive); GI50 (CAKI-1): > 100 µM (inactive); GI50 (NCI-H226): > 100 µM (inactive); GI50 (COLO 205): > 100 µM (inactive); GI50 (OVCAR-3): > 100 µM (inactive); GI50 (TK-10): > 100 µM (inactive); GI50 (HOP-92): > 100 µM (inactive); GI50 (CCRF-CEM): > 100 µM (inactive); GI50 (MCF7): > 100 µM (inactive); GI50 (M14): > 100 µM (inactive); GI50 (A549): > 100 µM (inactive); GI50 (SK-MEL-28): > 100 µM (inactive)

**Q.** Which GI50 (OVCAR-4) does the source give for `COc1cccc(CCNC(=O)Cc2ccccc2CCO)c1` here?
**A.** > 100 µM (inactive)

**Q.** What about the GI50 (U-251) of the same molecule?
**A.** > 100 µM (inactive)

**Q.** What about the GI50 (K562) of the same molecule?
**A.** > 100 µM (inactive)

**Q.** What about the GI50 (HL-60) of the same molecule?
**A.** > 100 µM (inactive)

**Q.** And the GI50 (SNB-75)?
**A.** > 100 µM (inactive)

**Q.** What about the GI50 (SF-295) of the same molecule?
**A.** > 100 µM (inactive)

**Q.** What about the GI50 (OVCAR-8) of the same molecule?
**A.** > 100 µM (inactive)

**Q.** And the GI50 (HCC 2998)?
**A.** > 100 µM (inactive)

**Q.** And the GI50 (UACC-62)?
**A.** > 100 µM (inactive)

**Q.** And the GI50 (CAKI-1)?
**A.** > 100 µM (inactive)

**Q.** What about the GI50 (NCI-H226) of the same molecule?
**A.** > 100 µM (inactive)

**Q.** And the GI50 (COLO 205)?
**A.** > 100 µM (inactive)

**Q.** What about the GI50 (OVCAR-3) of the same molecule?
**A.** > 100 µM (inactive)

**Q.** What about the GI50 (TK-10) of the same molecule?
**A.** > 100 µM (inactive)

**Q.** What about the GI50 (HOP-92) of the same molecule?
**A.** > 100 µM (inactive)

**Q.** What about the GI50 (CCRF-CEM) of the same molecule?
**A.** > 100 µM (inactive)

**Q.** What about the GI50 (MCF7) of the same molecule?
**A.** > 100 µM (inactive)

**Q.** And the GI50 (M14)?
**A.** > 100 µM (inactive)

**Q.** What about the GI50 (A549) of the same molecule?
**A.** > 100 µM (inactive)

**Q.** What about the GI50 (SK-MEL-28) of the same molecule?
**A.** > 100 µM (inactive)

**Q.** Which GI50 (OVCAR-4) does the source give for `Cc1cc(-c2nc3cc(O)ccc3s2)ccc1N` here?
**A.** 28 µM (inactive)

**Q.** And the GI50 (U-251)?
**A.** 30.5 µM (inactive)

**Q.** What about the GI50 (K562) of the same molecule?
**A.** 38.5 µM (inactive)

**Q.** What about the GI50 (HL-60) of the same molecule?
**A.** 32.1 µM (inactive)

**Q.** What about the GI50 (SNB-75) of the same molecule?
**A.** 23.7 µM (inactive)

**Q.** What about the GI50 (SF-295) of the same molecule?
**A.** 26 µM (inactive)

**Q.** What about the GI50 (OVCAR-8) of the same molecule?
**A.** 47.1 µM (inactive)

**Q.** And the GI50 (HCC 2998)?
**A.** 37.8 µM (inactive)

**Q.** What about the GI50 (UACC-62) of the same molecule?
**A.** 19.9 µM (inactive)

**Q.** What about the GI50 (CAKI-1) of the same molecule?
**A.** 34 µM (inactive)

**Q.** What about the GI50 (NCI-H226) of the same molecule?
**A.** 31.4 µM (inactive)

**Q.** And the GI50 (COLO 205)?
**A.** 21 µM (inactive)

**Q.** What about the GI50 (OVCAR-3) of the same molecule?
**A.** 23.5 µM (inactive)

**Q.** What about the GI50 (TK-10) of the same molecule?
**A.** 38.9 µM (inactive)

**Q.** And the GI50 (HOP-92)?
**A.** 76.4 µM (inactive)

**Q.** What about the GI50 (CCRF-CEM) of the same molecule?
**A.** 27.7 µM (inactive)

**Q.** What about the GI50 (MCF7) of the same molecule?
**A.** 17.6 µM (inactive)

**Q.** And the GI50 (M14)?
**A.** 20.9 µM (inactive)

**Q.** What about the GI50 (A549) of the same molecule?
**A.** 37 µM (inactive)

**Q.** What about the GI50 (SK-MEL-28) of the same molecule?
**A.** 27.8 µM (inactive)
